In ChEMBL document CHEMBL5465560, “Selectivity Literature for EUbOPEN Chemogenomic Library” (2024):

How the values were obtained:
[1] = target: T1, Inhibitor of nuclear factor kappa-B kinase subunit epsilon (Homo sapiens) (UniProt Q14164); experiment: Selectivity interaction (KinomeScan (DiscoverX)) EUB0001049a IKBKE; details: at 1 µM
T1 sequence (whole entry): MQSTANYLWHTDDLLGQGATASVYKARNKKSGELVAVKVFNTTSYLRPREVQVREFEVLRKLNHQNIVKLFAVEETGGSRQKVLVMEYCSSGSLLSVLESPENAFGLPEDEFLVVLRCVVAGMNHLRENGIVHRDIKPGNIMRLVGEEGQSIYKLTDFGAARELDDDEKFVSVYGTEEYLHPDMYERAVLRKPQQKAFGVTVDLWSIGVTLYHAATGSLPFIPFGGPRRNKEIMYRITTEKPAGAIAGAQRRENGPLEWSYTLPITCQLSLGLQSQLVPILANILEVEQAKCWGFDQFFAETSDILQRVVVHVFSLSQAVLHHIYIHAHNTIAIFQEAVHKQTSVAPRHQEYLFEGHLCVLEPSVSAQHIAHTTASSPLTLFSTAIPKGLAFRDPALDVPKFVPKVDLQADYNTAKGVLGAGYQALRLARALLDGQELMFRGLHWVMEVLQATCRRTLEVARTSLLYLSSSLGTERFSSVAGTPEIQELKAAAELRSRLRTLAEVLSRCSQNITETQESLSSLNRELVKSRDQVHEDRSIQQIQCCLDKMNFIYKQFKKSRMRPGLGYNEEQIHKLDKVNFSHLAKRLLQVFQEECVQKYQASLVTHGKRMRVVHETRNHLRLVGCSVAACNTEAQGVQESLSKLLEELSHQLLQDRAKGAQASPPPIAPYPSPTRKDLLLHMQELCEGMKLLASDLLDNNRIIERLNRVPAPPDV

[2] = target: Serine/threonine-protein kinase MARK2 (Homo sapiens) (UniProt Q7KZI7); experiment: Selectivity interaction (KinomeScan (DiscoverX)) EUB0001049a MARK2; details: at 1 µM
Serine/threonine-protein kinase MARK2 (Homo sapiens), sequence (Q7KZI7 whole entry): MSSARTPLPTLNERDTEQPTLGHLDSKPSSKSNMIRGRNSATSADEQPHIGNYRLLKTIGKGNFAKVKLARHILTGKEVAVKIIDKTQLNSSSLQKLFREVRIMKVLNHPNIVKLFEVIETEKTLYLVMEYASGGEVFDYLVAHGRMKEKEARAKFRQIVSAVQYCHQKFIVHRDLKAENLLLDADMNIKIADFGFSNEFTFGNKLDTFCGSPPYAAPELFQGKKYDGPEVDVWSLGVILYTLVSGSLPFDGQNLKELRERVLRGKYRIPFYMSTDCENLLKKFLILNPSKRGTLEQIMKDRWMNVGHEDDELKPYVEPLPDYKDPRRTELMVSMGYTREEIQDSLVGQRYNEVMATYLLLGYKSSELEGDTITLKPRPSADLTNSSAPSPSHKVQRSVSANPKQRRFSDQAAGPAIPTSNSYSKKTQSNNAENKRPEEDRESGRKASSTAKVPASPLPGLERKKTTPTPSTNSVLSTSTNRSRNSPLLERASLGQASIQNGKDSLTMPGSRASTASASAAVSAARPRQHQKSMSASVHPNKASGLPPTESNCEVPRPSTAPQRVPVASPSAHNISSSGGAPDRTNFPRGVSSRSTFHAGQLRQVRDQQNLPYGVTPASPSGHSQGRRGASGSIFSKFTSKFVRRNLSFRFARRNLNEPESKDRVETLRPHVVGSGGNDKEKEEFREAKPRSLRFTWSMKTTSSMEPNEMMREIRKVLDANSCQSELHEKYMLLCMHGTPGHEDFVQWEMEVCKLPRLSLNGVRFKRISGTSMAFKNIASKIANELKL

[3] = target: Myosin light chain kinase 2, skeletal/cardiac muscle (Homo sapiens) (UniProt Q9H1R3); experiment: Selectivity interaction (Kinase panel (literature)) EUB0001199aCl MYLK2; details: at 1 µM
Aurora kinase B = Aurora kinase B (Homo sapiens, UniProt Q96GD4); experiment: Selectivity interaction (Ambit KINOMEscan and KiNATiv profiling in Jurkat cells) EUB0000090b AURKB; type: cell-based; details: at 1 µM
Aurora kinase B, sequence (Q96GD4 whole entry): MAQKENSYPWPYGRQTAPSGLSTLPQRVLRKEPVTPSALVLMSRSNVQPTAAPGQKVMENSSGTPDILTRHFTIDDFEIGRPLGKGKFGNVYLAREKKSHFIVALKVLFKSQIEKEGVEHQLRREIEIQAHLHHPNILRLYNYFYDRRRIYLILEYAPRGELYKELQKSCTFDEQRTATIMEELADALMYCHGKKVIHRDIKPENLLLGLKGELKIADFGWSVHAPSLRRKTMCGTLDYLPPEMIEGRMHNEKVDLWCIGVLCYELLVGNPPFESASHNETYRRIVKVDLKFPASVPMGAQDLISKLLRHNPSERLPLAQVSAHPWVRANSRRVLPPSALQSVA

[4] = target: Serine/threonine-protein kinase OSR1 (Homo sapiens) (UniProt O95747); experiment: Selectivity interaction (KinomeScan (DiscoverX)) EUB0000618a OXSR1; details: at 10 µM
[5] = target: Mitogen-activated protein kinase kinase kinase kinase 5 (Homo sapiens) (UniProt Q9Y4K4); details: at 10 µM
[6] = target: Ribosomal protein S6 kinase alpha-2 (Homo sapiens) (UniProt Q15349); experiment: Selectivity interaction (KinomeScan (DiscoverX)) EUB0001619a RPS6KA2; details: at 1 µM
[7] = target: Myosin-IIIa (Homo sapiens) (UniProt Q8NEV4); experiment: Selectivity interaction (KinomeScan (DiscoverX)) EUB0000695a MYO3A; details: at 100 nM
Myosin-IIIa (Homo sapiens), sequence (Q8NEV4 whole entry): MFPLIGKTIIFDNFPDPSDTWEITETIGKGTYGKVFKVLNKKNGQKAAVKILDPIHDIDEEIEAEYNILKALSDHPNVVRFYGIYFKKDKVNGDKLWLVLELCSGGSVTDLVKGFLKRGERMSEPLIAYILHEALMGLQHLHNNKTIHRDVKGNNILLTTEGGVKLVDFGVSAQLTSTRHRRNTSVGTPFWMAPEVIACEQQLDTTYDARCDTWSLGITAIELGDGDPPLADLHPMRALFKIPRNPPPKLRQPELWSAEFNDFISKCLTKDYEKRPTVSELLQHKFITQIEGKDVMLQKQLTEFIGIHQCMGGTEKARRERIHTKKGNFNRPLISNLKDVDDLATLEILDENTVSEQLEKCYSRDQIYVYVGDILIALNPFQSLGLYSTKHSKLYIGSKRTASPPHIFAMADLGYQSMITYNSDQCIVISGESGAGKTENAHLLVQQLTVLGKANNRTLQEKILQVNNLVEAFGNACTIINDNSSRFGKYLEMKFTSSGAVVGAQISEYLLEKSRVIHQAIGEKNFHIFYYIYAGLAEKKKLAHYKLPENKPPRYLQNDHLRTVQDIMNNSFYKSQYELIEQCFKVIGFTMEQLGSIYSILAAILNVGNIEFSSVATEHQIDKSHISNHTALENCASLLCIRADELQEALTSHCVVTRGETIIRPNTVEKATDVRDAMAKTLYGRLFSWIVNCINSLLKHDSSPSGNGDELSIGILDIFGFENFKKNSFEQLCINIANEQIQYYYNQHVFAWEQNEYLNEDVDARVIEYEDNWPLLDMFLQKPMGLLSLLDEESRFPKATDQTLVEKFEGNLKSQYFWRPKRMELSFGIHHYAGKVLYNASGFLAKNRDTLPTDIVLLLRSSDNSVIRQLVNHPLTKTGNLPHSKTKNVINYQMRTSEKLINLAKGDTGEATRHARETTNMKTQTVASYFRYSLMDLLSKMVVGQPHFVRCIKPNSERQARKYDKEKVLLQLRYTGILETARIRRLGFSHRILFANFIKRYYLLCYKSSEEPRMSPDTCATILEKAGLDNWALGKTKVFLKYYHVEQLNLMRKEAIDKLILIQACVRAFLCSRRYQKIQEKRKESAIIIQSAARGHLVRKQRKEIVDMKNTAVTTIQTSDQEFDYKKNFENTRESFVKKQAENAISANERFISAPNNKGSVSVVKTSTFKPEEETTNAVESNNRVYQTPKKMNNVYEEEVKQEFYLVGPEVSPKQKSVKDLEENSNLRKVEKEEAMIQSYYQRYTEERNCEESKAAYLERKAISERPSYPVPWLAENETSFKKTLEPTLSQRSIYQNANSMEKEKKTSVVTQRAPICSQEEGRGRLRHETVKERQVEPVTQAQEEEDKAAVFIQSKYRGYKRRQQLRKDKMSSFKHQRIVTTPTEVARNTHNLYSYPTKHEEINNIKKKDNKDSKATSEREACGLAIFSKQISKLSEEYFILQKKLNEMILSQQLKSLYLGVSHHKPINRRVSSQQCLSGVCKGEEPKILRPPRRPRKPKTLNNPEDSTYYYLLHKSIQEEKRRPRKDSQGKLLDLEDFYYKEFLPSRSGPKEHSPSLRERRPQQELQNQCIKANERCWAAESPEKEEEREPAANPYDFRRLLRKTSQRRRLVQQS

[8] = target: T2, Serine/threonine-protein kinase TAO1 (Homo sapiens) (UniProt Q7L7X3); experiment: Selectivity interaction (KinomeScan (DiscoverX)) EUB0000607a TAOK1; details: at 10 µM
T2 sequence (whole entry): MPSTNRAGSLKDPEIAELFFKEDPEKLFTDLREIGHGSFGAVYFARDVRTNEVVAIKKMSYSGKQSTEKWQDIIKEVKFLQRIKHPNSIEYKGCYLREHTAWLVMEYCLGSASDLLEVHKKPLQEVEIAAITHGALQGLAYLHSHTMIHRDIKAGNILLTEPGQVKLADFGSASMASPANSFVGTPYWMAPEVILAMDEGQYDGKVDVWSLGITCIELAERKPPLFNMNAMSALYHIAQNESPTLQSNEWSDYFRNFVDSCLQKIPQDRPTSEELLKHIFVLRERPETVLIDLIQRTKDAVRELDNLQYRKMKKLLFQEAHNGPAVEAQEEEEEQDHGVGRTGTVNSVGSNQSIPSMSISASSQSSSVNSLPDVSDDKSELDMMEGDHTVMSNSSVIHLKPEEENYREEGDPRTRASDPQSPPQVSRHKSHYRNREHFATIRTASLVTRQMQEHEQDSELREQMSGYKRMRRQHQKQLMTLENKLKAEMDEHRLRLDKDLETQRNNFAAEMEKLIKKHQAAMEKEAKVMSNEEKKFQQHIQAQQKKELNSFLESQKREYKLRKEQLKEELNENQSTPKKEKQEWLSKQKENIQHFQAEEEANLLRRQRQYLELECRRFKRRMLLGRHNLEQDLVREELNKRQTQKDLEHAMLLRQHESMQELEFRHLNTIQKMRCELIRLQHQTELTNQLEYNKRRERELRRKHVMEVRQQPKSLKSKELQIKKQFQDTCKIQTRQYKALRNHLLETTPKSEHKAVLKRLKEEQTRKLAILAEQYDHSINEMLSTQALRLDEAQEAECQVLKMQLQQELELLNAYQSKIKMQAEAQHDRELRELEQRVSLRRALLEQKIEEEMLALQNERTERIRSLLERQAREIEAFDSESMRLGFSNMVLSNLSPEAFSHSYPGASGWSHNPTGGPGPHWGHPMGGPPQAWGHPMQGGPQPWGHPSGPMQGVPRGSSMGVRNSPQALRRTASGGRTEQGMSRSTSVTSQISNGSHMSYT

[9] = target: Serine/threonine-protein kinase NIM1 (Homo sapiens, UniProt Q8IY84); experiment: Selectivity interaction (Kinase panel (Z-LYTE Assay)) EUB0001632a NIM1K; details: at 10 µM
Serine/threonine-protein kinase NIM1, sequence (Q8IY84 whole entry, canonical isoform): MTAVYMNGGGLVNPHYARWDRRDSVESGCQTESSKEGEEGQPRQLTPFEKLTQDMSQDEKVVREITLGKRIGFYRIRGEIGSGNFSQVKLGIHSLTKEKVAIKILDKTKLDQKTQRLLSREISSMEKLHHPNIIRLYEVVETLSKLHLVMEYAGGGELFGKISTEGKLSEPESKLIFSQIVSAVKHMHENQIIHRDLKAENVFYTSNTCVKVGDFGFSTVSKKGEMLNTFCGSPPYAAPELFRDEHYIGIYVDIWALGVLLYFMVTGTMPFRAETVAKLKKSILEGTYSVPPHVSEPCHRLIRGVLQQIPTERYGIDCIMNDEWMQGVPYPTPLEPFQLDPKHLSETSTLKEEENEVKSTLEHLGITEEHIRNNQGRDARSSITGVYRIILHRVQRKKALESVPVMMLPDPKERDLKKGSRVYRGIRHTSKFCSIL

[10] = target: Casein kinase I isoform epsilon (Homo sapiens, UniProt P49674); experiment: Selectivity interaction (ProQinase) EUB0000171b CSNK1E
Casein kinase I isoform epsilon, sequence (P49674 whole entry, looked up, canonical isoform): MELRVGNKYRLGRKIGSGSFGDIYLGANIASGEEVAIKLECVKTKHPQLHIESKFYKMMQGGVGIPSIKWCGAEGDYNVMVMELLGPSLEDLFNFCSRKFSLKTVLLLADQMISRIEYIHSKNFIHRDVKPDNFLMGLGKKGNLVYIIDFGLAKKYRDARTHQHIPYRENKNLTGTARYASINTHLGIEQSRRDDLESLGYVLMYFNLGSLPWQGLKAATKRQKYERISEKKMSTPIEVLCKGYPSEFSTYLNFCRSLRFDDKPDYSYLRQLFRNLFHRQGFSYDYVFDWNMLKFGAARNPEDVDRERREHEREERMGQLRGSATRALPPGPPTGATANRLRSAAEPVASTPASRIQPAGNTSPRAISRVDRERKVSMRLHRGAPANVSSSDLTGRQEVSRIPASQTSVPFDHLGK

[11] = target: Receptor-type tyrosine-protein kinase FLT3 (Homo sapiens) (UniProt P36888); experiment: Selectivity interaction (ProQinase) EUB0000171b FLT3
Receptor-type tyrosine-protein kinase FLT3 (Homo sapiens), sequence (P36888 whole entry): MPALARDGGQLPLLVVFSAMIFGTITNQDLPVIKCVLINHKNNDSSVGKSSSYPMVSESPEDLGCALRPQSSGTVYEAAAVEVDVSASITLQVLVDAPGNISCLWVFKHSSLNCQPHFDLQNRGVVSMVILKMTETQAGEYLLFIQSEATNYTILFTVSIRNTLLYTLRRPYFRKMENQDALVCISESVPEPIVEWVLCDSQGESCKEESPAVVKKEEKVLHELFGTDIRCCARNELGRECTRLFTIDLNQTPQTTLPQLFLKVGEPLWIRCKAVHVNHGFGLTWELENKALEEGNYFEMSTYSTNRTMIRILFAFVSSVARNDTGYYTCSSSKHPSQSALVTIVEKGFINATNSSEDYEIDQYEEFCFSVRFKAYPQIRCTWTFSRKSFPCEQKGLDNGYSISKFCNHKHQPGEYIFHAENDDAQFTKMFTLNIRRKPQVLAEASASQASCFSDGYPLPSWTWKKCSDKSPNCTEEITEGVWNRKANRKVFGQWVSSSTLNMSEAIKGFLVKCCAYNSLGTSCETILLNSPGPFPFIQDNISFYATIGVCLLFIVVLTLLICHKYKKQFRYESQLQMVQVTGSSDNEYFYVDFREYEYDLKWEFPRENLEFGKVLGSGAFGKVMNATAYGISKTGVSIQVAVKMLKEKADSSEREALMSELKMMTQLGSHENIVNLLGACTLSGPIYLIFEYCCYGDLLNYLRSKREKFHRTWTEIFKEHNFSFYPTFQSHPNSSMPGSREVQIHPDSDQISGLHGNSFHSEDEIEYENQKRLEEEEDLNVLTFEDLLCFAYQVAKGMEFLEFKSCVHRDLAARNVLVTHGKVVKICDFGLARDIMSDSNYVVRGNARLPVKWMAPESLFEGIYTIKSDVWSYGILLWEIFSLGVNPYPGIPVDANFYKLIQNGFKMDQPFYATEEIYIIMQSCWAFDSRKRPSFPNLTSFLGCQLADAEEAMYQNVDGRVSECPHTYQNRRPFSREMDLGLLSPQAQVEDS

COc1cc(Nc2nc(C)cc(-c3cnn4nc(OC)ccc34)n2)cc(C(F)(F)F)c1
% of control [1]: 83% | % of control [2]: 77%

CN1Cc2nccc(-c3cn(C)nc3-c3ccc(F)cc3)c2C1=O
% of inhibition [3]: 5%

CN(C)C/C=C/C(=O)Nc1ccc(C(=O)N2CCCC(Nc3ncc(Cl)c(-c4c[nH]c5ccccc45)n3)C2)cc1 (centres undefined)
% of control (Aurora kinase B): 100%

O[C@H]1CC[C@H](Nc2ncc3nc(Nc4c(F)cc(F)cc4F)n([C@H]4CCOC4)c3n2)CC1
% of control [4]: 100%

Cc1cc([C@@H](C)Nc2ccccc2C(=O)O)c2nc(N3CCOCC3)cc(=O)n2c1 [AZD-6482]
% of control [5]: 96%

N#Cc1cccc(-c2c[nH]c3ncnc(N4CCOCC4)c23)c1
% of control [6]: 82%

Cc1cc(F)c(C(=O)Nc2cccc(-c3nncn3C(C)C)n2)cc1-n1cnc(C2CC2)c1
% of control [7]: 100%

CNC(=O)Nc1ccc(-c2nc(N3CC4CCC(C3)O4)c3cnn(C4CCC5(CC4)OCCO5)c3n2)cc1
% of control [8]: 100%

Cn1cc(-n2cnc3c(NCc4nc5cc(Cl)c(Cl)cc5[nH]4)nc(N4CCOCC4)nc32)cn1
% of control [9]: 4.54%

C=CC(=O)Nc1cccc(C(=O)Nc2ccc(Nc3cc(-c4[nH]c(SC)nc4C)ccn3)cc2)c1
% of control ([10]; at 1 µM): 57% | % of control ([10]; at 5 µM): 21% | % of control ([11]; at 1 µM): 78% | % of control ([11]; at 5 µM): 49%
